Laboratory results: publication PMC10569036

What was measured:
[1] = shake flask on a mixture of 185; loss from the water phase only; LC-Orbitrap peak areas; conditions: room
[2] = shake flask on a mixture of 185; loss from the water phase only; LC-QTOF peak areas; conditions: room

| SMILES | log partition 1-octanol / HPLC water, unbuffered, traces of methanol / DMSO [1] | log partition butyl acetate / HPLC water, unbuffered, traces of methanol / DMSO [1] | log partition chloroform / HPLC water, unbuffered, traces of methanol / DMSO [1] | log partition cyclohexane / HPLC water, unbuffered, traces of methanol / DMSO [1] | log partition dichloromethane / HPLC water, unbuffered, traces of methanol / DMSO [1] | log partition n-hexane / HPLC water, unbuffered, traces of methanol / DMSO [1] | log partition n-octane / HPLC water, unbuffered, traces of methanol / DMSO [1] | log partition n-undecane / HPLC water, unbuffered, traces of methanol / DMSO [1] | log partition oleylalcohol / HPLC water, unbuffered, traces of methanol / DMSO [1] | log partition toluene / HPLC water, unbuffered, traces of methanol / DMSO [1] | log partition 1-octanol / HPLC water, unbuffered, traces of methanol / DMSO [2] | log partition butyl acetate / HPLC water, unbuffered, traces of methanol / DMSO [2] | log partition chloroform / HPLC water, unbuffered, traces of methanol / DMSO [2] | log partition cyclohexane / HPLC water, unbuffered, traces of methanol / DMSO [2] | log partition dichloromethane / HPLC water, unbuffered, traces of methanol / DMSO [2] | log partition n-hexane / HPLC water, unbuffered, traces of methanol / DMSO [2] | log partition n-octane / HPLC water, unbuffered, traces of methanol / DMSO [2] | log partition n-undecane / HPLC water, unbuffered, traces of methanol / DMSO [2] | log partition oleylalcohol / HPLC water, unbuffered, traces of methanol / DMSO [2] | log partition toluene / HPLC water, unbuffered, traces of methanol / DMSO [2] |
| --- | --- | --- | --- | --- | --- | --- | --- | --- | --- | --- | --- | --- | --- | --- | --- | --- | --- | --- | --- | --- |
| Cn1cnc([N+](=O)[O-])c1Sc1ncnc2nc[nH]c12 | 0.3085 log10 | 0.621 log10 | 0.1897 log10 | -1.394 log10 | 0.2139 log10 | -1.636 log10 | -1.543 log10 | -1.518 log10 | 0.1703 log10 | -0.3549 log10 | 0.004535 log10 | -0.2382 log10 | -0.4745 log10 | -1.86 log10 | -0.366 log10 | -1.66 log10 | -2.343 log10 | -2.232 log10 | -0.3513 log10 | -1.048 log10 |
| Cc1ccc([N+](=O)[O-])cc1S(=O)(=O)O | 1.274 log10 | 1.798 log10 | 2.228 log10 | 0.6608 log10 | 2.4 log10 | 0.3087 log10 | 0.3589 log10 | 0.261 log10 | 0.9359 log10 | 1.703 log10 | 2.399 log10 | 2.641 log10 | 2.843 log10 | 0.5479 log10 | 2.477 log10 | 0.3824 log10 | 0.4393 log10 | 0.4122 log10 | 2.608 log10 | 2.304 log10 |
| CC(C)N1C(=O)c2ccccc2NS1(=O)=O | 0.1891 log10 | -1.323 log10 | 1.041 log10 | -0.4548 log10 | 0.004436 log10 | -0.9186 log10 | -0.654 log10 | -1.481 log10 | -0.1011 log10 | -0.9524 log10 | -1.303 log10 | -1.026 log10 | 0.1169 log10 | -1.509 log10 | 0.3228 log10 | -1.425 log10 | -1.602 log10 | -1.756 log10 | -1.143 log10 | -0.5708 log10 |
| c1coc(-c2nc3ccccc3[nH]2)c1 | 1.137 log10 | 1.189 log10 | 0.9478 log10 | -0.1735 log10 | 1.025 log10 | -0.2475 log10 | -0.314 log10 | -0.8377 log10 | 1.389 log10 | 0.5283 log10 | 1.514 log10 | 1.818 log10 | 1.228 log10 | -0.8199 log10 | 1.187 log10 | -1.048 log10 | -0.9024 log10 | -1.111 log10 | 1.545 log10 | 0.6693 log10 |
| CN(C1CCCCC1)S(=O)(=O)c1ccccc1N | 1.192 log10 | 0.997 log10 | 0.5005 log10 | 0.7696 log10 | 1.312 log10 | 0.8609 log10 | 0.7922 log10 | 0.7687 log10 | 1.252 log10 | 0.9027 log10 | -0.8134 log10 | 0.2235 log10 | 0.4748 log10 | -0.5397 log10 | 0.1793 log10 | -0.5682 log10 | -0.5115 log10 | -0.8537 log10 | -0.9123 log10 | -0.3194 log10 |

The next lines start with results.

| log partition 1-octanol / HPLC water, unbuffered, traces of methanol / DMSO [1] | log partition butyl acetate / HPLC water, unbuffered, traces of methanol / DMSO [1] | log partition chloroform / HPLC water, unbuffered, traces of methanol / DMSO [1] | log partition cyclohexane / HPLC water, unbuffered, traces of methanol / DMSO [1] | log partition dichloromethane / HPLC water, unbuffered, traces of methanol / DMSO [1] | log partition n-hexane / HPLC water, unbuffered, traces of methanol / DMSO [1] | log partition n-octane / HPLC water, unbuffered, traces of methanol / DMSO [1] | log partition n-undecane / HPLC water, unbuffered, traces of methanol / DMSO [1] | log partition oleylalcohol / HPLC water, unbuffered, traces of methanol / DMSO [1] | log partition toluene / HPLC water, unbuffered, traces of methanol / DMSO [1] | SMILES | log partition 1-octanol / HPLC water, unbuffered, traces of methanol / DMSO [2] | log partition butyl acetate / HPLC water, unbuffered, traces of methanol / DMSO [2] | log partition chloroform / HPLC water, unbuffered, traces of methanol / DMSO [2] | log partition cyclohexane / HPLC water, unbuffered, traces of methanol / DMSO [2] | log partition dichloromethane / HPLC water, unbuffered, traces of methanol / DMSO [2] | log partition n-hexane / HPLC water, unbuffered, traces of methanol / DMSO [2] | log partition n-octane / HPLC water, unbuffered, traces of methanol / DMSO [2] | log partition n-undecane / HPLC water, unbuffered, traces of methanol / DMSO [2] | log partition oleylalcohol / HPLC water, unbuffered, traces of methanol / DMSO [2] | log partition toluene / HPLC water, unbuffered, traces of methanol / DMSO [2] |
| --- | --- | --- | --- | --- | --- | --- | --- | --- | --- | --- | --- | --- | --- | --- | --- | --- | --- | --- | --- | --- |
| 1.509 log10 | 1.21 log10 | 1.689 log10 | 0.5819 log10 | 1.83 log10 | 0.2985 log10 | 0.4632 log10 | 0.151 log10 | 0.9177 log10 | 1.122 log10 | CCCCNS(=O)(=O)c1ccc(C)cc1 | 1.761 log10 | 1.471 log10 | 1.664 log10 | 0.988 log10 | 1.556 log10 | 0.6036 log10 | 0.3273 log10 | 0.4324 log10 | 1.505 log10 | 1.679 log10 |
| 2.911 log10 | 2.863 log10 | 1.794 log10 | 1.372 log10 | 2.835 log10 | 0.9138 log10 | 0.8981 log10 | 0.6241 log10 | 2.582 log10 | 2.848 log10 | CCC(C)(CC)c1cc(NC(=O)c2c(OC)cccc2OC)on1 | 1.786 log10 | 2.159 log10 | 2.432 log10 | 1.696 log10 | 1.861 log10 | 0.9529 log10 | 1.176 log10 | 1.012 log10 | 2.115 log10 | 2.04 log10 |
